According to US20210386367A1, “DEVICES AND SYSTEMS FOR GASTROINTESTINAL MICROBIOME DETECTION AND MANIPULATION” (Progenity, Inc., priority 2018, published 2021):
Converted amounts (≈) assume the structure as drawn. Like-named read-outs stand apart in the source and are kept apart here.

Key:
[1] = test system: E. coli ATCC 35218 (TEM-1 β-lactamase producer); assay: Broth microdilution MIC (time-kill study); type: cell-based, Escherichia coli; conditions: E. coli ATCC 35218
S. pyogenes ATCC 49399 = assay: Broth microdilution MIC (time-kill study); type: cell-based, Streptococcus pyogenes; conditions: S. pyogenes ATCC 49399
Clostridium spp. = assay: Agar dilution MIC, 10 clinical isolates; type: cell-based; conditions: 10 Clostridium spp. clinical isolates
Escherichia coli = assay: Broth microdilution MIC, 50 clinical isolates (incl. ESBL, one NDM-1); type: cell-based
Experimental: Minimal inhibitory concentration (MIC) values were determined by broth microdilution or agar dilution in accordance with guidelines from the Clinical and Laboratory Standards Institute (CLSI; (1) “Methods for Dilution Antimicrobial Susceptibility Tests for Bacteria That Grow Aerobically; Approved Standard; 11th ed.” CLSI standard M07-A11, 2018; (2) “Performance Standards for Antimicrobial Susceptibility Testing; Twenty-Eighth Informational Supplement,” CLSI document M100-S28, 2018; and (3) “Methods for Antimicrobial Susceptibility Testing of Anaerobic Bacteria; Approved Standard—Eighth Edition,” CLSI document M11-A8, 2012).
Tested aerobically by broth microdilution: • Escherichia coli, n=50 • Klebsiella spp., n=50 • Pseudomonas aeruginosa, n=50 • Streptococcus spp., n=50 • Staphylococcus aureus, n=50 • Enterococcus faecalis, n=50 • Enterobacter aerogenes, n=50 • Proteus mirabilis, n=50
Broth microdilution testing of aerobic bacteria was conducted in cation-adjusted Mueller Hinton broth (MHBII). For testing streptococci, lysed horse blood (LHB) was added to MHBII broth at a final concentration of 3%. Where LHB was used, it was added after filtering.
Broth microdilution susceptibility testing in 96-well microplates was conducted in accordance with CLSI methods (1) and (2). Automated liquid handlers were used to conduct serial dilutions and liquid transfers, including the Multidrop 384 (Labsystems, Helsinki, Finland), Biomek 2000, and the Biomek FX (Beckman Coulter, Fullerton, Calif.). All wells in columns 2 through 12 of a standard 96-well microdilution plate (Costar 3795) were filled with 150 μL of the appropriate diluent. Then, 300 μL of the test agents were added to the wells of column 1 of the plates at 100× the highest final concentration to be tested. Serial two-fold dilutions were made across the rows through column 11 using the Biomek 2000. The wells of column 12 contained no drug and served as the growth control wells. This plate served as the “mother plate” from which MIC assay plates or “daughter plates” were made.
The daughter plates were loaded with 190 μL per well of the appropriate medium using the Multidrop 384. The daughter plates were created using the Biomek FX which transferred 2 μL of drug solution from each well of a mother plate to each corresponding well of the daughter plate in a single step. A standardized inoculum of each test organism was prepared per CLSI methods (1) to equal a 0.5 McFarland standard, followed by a dilution of 1:20 for aerobes and 1:10 for anaerobes. The plates were then inoculated with 10 μL of the diluted inoculum using the Biomek 2000 from low to high drug concentration, resulting in a final concentration of approximately 5×10^5 CFU/mL per well. An un-inoculated plate was incubated in parallel for each medium for the purpose of assessing solubility of the drug in the test media.
Inoculated plates were stacked 3 or 4 high, covered with a sterile lid on the top plate, placed into boxes with CO2 planchets (streptococci) or plastic bags (all other isolates). Plates were incubated at 35° C. for 16-24 hr in ambient air for aerobes or for 42-48 hr in the anaerobic environment of the Bactron II anaerobe chamber (Sheldon Manufacturing Co.; Cornelius, Oreg.). Following incubation, the microplates were removed from the incubator and viewed from the bottom using a plate viewer. The MIC values were read and recorded as the lowest concentration of drug that inhibited visible growth of the organism as per CLSI methods (1) and (2).

Molecule: CN[C@H](CC(C)C)C(=O)N[C@H]1C(=O)N[C@@H](CC(N)=O)C(=O)N[C@H]2C(=O)N[C@H]3C(=O)N[C@H](C(=O)N[C@H](C(=O)O)c4cc(O)cc(O)c4-c4cc3ccc4O)[C@H](O)c3ccc(c(Cl)c3)Oc3cc2cc(c3O[C@@H]2O[C@H](CO)[C@@H](O)[C@H](O)[C@H]2O[C@H]2C[C@](C)(N)[C@H](O)[C@H](C)O2)Oc2ccc(cc2Cl)[C@H]1O [vancomycin, Vancomycin]
- MIC ([1]; Escherichia coli, ATCC35218, read-out: MIC): > 16 µg/mL
- MIC (S. pyogenes ATCC 49399; Streptococcus pyogenes, ATCC49399, read-out: MIC): 0.25 µg/mL (≈ 0.173 µM)

Molecule: Cc1ncc([N+](=O)[O-])n1CCO [MTZ]
- % S (Clostridium spp.): 100%
- MIC50 (Clostridium spp.): 1 µg/mL (≈ 5.84 µM)
- MIC90 (Clostridium spp.): 1 µg/mL (≈ 5.84 µM)
- MIC range (Clostridium spp.): 0.12 to 2 µg/mL
- Mode (Clostridium spp.; modal MIC): 1 µg/mL

Molecule: piperacillin/tazobactam [piperacillin-tazobactam]
- % I (Escherichia coli): 12% ^
- % R (Escherichia coli): 8%
- % S (Escherichia coli): 80%
- MIC50 (Escherichia coli): 2 µg/mL
- MIC90 (Escherichia coli): 64 µg/mL
- Mode (Escherichia coli): 2 µg/mL
- Cumulative percentage of isolates inhibited at MIC (Escherichia coli; 0.5 μg/mL): 6.0%
- Number of test isolates at MIC (Escherichia coli; 0.5 μg/mL): 2
- Cumulative percentage of isolates inhibited at MIC (Escherichia coli; 1 μg/mL): 26.0%
- Number of test isolates at MIC (Escherichia coli; 1 μg/mL): 10
- Cumulative percentage of isolates inhibited at MIC (Escherichia coli; 2 μg/mL): 64.0%
- Number of test isolates at MIC (Escherichia coli; 2 μg/mL): 19
- Cumulative percentage of isolates inhibited at MIC (Escherichia coli; 4 μg/mL): 74.0%
- Number of test isolates at MIC (Escherichia coli; 4 μg/mL): 5
- Cumulative percentage of isolates inhibited at MIC (Escherichia coli; 8 μg/mL): 78.0%
- Number of test isolates at MIC (Escherichia coli; 8 μg/mL): 2
- Cumulative percentage of isolates inhibited at MIC (Escherichia coli; 16 μg/mL): 80.0%
- Number of test isolates at MIC (Escherichia coli; 16 μg/mL): 1
- Cumulative percentage of isolates inhibited at MIC (Escherichia coli; 32 μg/mL): 86.0%
- Number of test isolates at MIC (Escherichia coli; 32 μg/mL): 3
- Cumulative percentage of isolates inhibited at MIC (Escherichia coli; 64 μg/mL): 92.0%
- Number of test isolates at MIC (Escherichia coli; 64 μg/mL): 3
- Cumulative percentage of isolates inhibited at MIC (Escherichia coli; 128 μg/mL): 96.0%
- Number of test isolates at MIC (Escherichia coli; 128 μg/mL): 2
- Cumulative percentage of isolates inhibited at MIC (Escherichia coli; >128 μg/mL): 100.0%
- Number of test isolates at MIC (Escherichia coli; >128 μg/mL): 2
- Cumulative percentage of isolates inhibited at MIC (Escherichia coli; ≤[…]): 2.0%
- Number of test isolates at MIC (Escherichia coli; ≤[…]): 1
- MIC [1]: 2/4
- MIC (S. pyogenes ATCC 49399): 0.06 µg/mL

Molecule: COc1c(N2C[C@@H]3CCCN[C@@H]3C2)c(F)cc2c(=O)c(C(=O)O)cn(C3CC3)c12 [moxifloxacin]
- MIC range (Escherichia coli): 0.015 to 128 µg/mL
- Mode (Escherichia coli): 0.03 µg/mL
- Cumulative percentage of isolates inhibited at MIC (Escherichia coli; 0.015 μg/mL): 4.0%
- Number of test isolates at MIC (Escherichia coli; 0.015 μg/mL): 2
- Cumulative percentage of isolates inhibited at MIC (Escherichia coli; 0.03 μg/mL): 34.0%
- Number of test isolates at MIC (Escherichia coli; 0.03 μg/mL): 15
- Cumulative percentage of isolates inhibited at MIC (Escherichia coli; 0.06 μg/mL): 52.0%
- Number of test isolates at MIC (Escherichia coli; 0.06 μg/mL): 9
- Cumulative percentage of isolates inhibited at MIC (Escherichia coli; 0.5 μg/mL): 60.0%
- Number of test isolates at MIC (Escherichia coli; 0.5 μg/mL): 2
- Cumulative percentage of isolates inhibited at MIC (Escherichia coli; 2 μg/mL): 64.0%
- Number of test isolates at MIC (Escherichia coli; 2 μg/mL): 2
- Cumulative percentage of isolates inhibited at MIC (Escherichia coli; 4 μg/mL): 66.0%
- Number of test isolates at MIC (Escherichia coli; 4 μg/mL): 1
- Cumulative percentage of isolates inhibited at MIC (Escherichia coli; 8 μg/mL): 70.0%
- Number of test isolates at MIC (Escherichia coli; 8 μg/mL): 2
- Cumulative percentage of isolates inhibited at MIC (Escherichia coli; 16 μg/mL): 88.0%
- Number of test isolates at MIC (Escherichia coli; 16 μg/mL): 9
- Cumulative percentage of isolates inhibited at MIC (Escherichia coli; 32 μg/mL): 98.0%
- Number of test isolates at MIC (Escherichia coli; 32 μg/mL): 5
- Cumulative percentage of isolates inhibited at MIC (Escherichia coli; 128 μg/mL): 100.0%
- Number of test isolates at MIC (Escherichia coli; 128 μg/mL): 1
- MIC50 (Escherichia coli; Escherichia coli, read-out: MIC50): 0.06 µg/mL (≈ 0.149 µM)
- MIC90 (Escherichia coli; Escherichia coli, read-out: MIC90): 32 µg/mL (≈ 79.7 µM)
- Number of test isolates at MIC (Escherichia coli; […]): 1
